Common to all, as to format: biochemical
The target of assay [1] is human JAK1 (a.a. 837-1142) (Homo sapiens, UniProt P23458). Briefly: In vitro JAK kinase assay (HTRF, phosphorylation of biotinylated peptide), JAK1. The conditions noted are these: measured at 1 mM ATP. Here is the method:
(§1) Compounds herein were tested for inhibitory activity of JAK targets according to the following in vitro assay described in Park et al., Analytical Biochemistry 1999, 269, 94-104. The catalytic domains of human JAK1 (a.a. 837-1142), Jak2 (a.a. 828-1132) and Jak3 (a.a. 781-1124) with an N-terminal His tag were expressed using baculovirus in insect cells and purified. The catalytic activity of JAK1, JAK2 or JAK3 was assayed by measuring the phosphorylation of a biotinylated peptide. The phosphorylated peptide was detected by homogenous time resolved fluorescence (HTRF). […] Reactions were carried out at room temperature for 1 hr and then stopped with 20 μL 45 mM EDTA, 300 nM SA-APC, 6 nM Eu-Py20 in assay buffer (Perkin Elmer, Boston, Mass.). Binding to the Europium labeled antibody took place for 40 minutes and HTRF signal was measured on a Fusion plate reader (Perkin Elmer, Boston, Mass.).

Assay [2] has as its target human JAK1 (a.a. 837-1142). The assay is described as above. Particulars: measured at 1 mM ATP; JAK2 IC50 / JAK1 IC50. Here is the method: as §1
Assay [3] concerns the target human Jak2 (a.a. 828-1132) (Homo sapiens (Human), UniProt O60674). As to the kind of experiment: In vitro JAK kinase assay (HTRF, phosphorylation of biotinylated peptide), JAK2. The conditions noted are these: measured at 1 mM ATP. On the procedure: as §1

human Jak2 (a.a. 828-1132), sequence (O60674 828-1132): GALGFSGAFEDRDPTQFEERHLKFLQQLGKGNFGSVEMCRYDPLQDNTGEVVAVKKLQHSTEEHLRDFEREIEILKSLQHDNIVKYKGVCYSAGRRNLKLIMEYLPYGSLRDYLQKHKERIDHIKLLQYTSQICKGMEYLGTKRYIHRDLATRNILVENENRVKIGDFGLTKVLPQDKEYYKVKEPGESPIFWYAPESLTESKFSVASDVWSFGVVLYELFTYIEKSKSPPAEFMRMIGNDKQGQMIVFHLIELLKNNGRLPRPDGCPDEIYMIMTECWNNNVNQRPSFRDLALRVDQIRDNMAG

For orientation: IC50 means the midpoint of a concentration-inhibition curve. Read a low IC50 as inhibition by little substance. “4-{3-(cyanomethyl)-3-[3-(7H-pyrrolo[2,3- d]pyrimidin-4-yl)-1H-pyrrol-1- yl]azetidin-1-yl}-N-[4- (trifluoromethyl)pyridin-3-yl]piperidine- 1-carboxamide [Example 165]”: the figures for the IC50 in assay [1] and in assay [3] were 5 to 20 nM and 50 to 100 nM, respectively. Moreover, the “IC50 Ratio JAK2/JAK1” value in assay [2] was found to be 10.4.

“4-{3-(cyanomethyl)-3-[4-(7H-pyrrolo[2,3- d]pyrimidin-4-yl)-1H-pyrazol-1- yl]azetidin-1-yl}-N-(2,5-difluorophenyl) piperidine-1-carboxamide [Example 174]”: the IC50 in assay [1] was at most 5 nM; in assay [3], at most 10 nM. For the same compound, the “IC50 Ratio JAK2/JAK1” value in assay [2] worked out at 7.1.

“4-{3-(cyanomethyl)-3-[4-(7H-pyrrolo[2,3- d]pyrimidin-4-yl)-1H-pyrazol-1- yl]azetidin-1-yl}-N-(2-methylphenyl) piperidine-1-carboxamide [Example 185]”: the IC50 is at most 5 nM in assay [1] and 10 to 50 nM in assay [3]. The “IC50 Ratio JAK2/JAK1” value in assay [2] is 9.5.

On to “4-{3-(cyanomethyl)-3-[4-(7H-pyrrolo[2,3- d]pyrimidin-4-yl)-1H-pyrazol-1- yl]azetidin-1-yl}-N-(3,5-difluorophenyl) piperidine-1-carboxamide [Example 175]”, for which the IC50 in assay [1] was at most 5 nM; in assay [3] it was at most 10 nM. The “IC50 Ratio JAK2/JAK1” value in assay [2] was 3.6.

For the compound `N#CCC1(n2cc(-c3ncnc4[nH]ccc34)cn2)CN(C2CCN(C(=O)C3Cc4ccccc4C3)CC2)C1` [Example 99, {1-[1-(2,3-dihydro-1H-inden-2-ylcarbonyl)piperidin-4-yl]-3-[4-(7H-pyrrolo[2,3-d]pyrimidin-4-yl)-1H-pyrazol-1-yl]azetidin-3-yl}acetonitrile], the IC50 in assay [1] is 5 to 20 nM; in assay [3], 10 to 50 nM. In assay [2], the “IC50 Ratio JAK2/JAK1” value came to 5.6.

On to `N#CCC1(n2cc(-c3ncnc4[nH]ccc34)cn2)CN(C2CCN(Cc3ccc(F)cc3F)CC2)C1` [Example 217, {1-[1-(2,4-difluorobenzyl)piperidin-4-yl]-3-[4-(7H-pyrrolo[2,3-d]pyrimidin-4-yl)-1H-pyrazol-1-yl]azetidin-3-yl}acetonitrile], for which the IC50 in assay [1] fell in the range of 5 to 20 nM; in assay [3] it was 10 to 50 nM. Further, the “IC50 Ratio JAK2/JAK1” value in assay [2] was determined as 5.8.

For the compound `CC(C)(C)C(=O)Nc1cc(CN2CCC(N3CC(CC#N)(n4cc(-c5ncnc6[nH]ccc56)cn4)C3)CC2)ccn1` [Example 235, N-{4-[(4-{3-(cyanomethyl)-3-[4-(7H-pyrrolo[2,3-d]pyrimidin-4-yl)-1H-pyrazol-1-yl]azetidin-1-yl}piperidin-1-yl)methyl]pyridin-2-yl}-2,2-dimethylpropanamide], the figures for the IC50 in assay [1] and in assay [3] were 5 to 20 nM and 10 to 50 nM, respectively. Also, in assay [2], the “IC50 Ratio JAK2/JAK1” value came out at 2.5.
